Reference: ChEMBL document CHEMBL5291721, “A preclinical secondary pharmacology resource illuminates target-adverse drug reaction associations of marketed drugs” (Nat Commun, 2023)

Columns and labels:
[1] = molecular target: T1, Alpha-1A adrenergic receptor (Homo sapiens, UniProt P35348)
T1 sequence (P35348 whole entry): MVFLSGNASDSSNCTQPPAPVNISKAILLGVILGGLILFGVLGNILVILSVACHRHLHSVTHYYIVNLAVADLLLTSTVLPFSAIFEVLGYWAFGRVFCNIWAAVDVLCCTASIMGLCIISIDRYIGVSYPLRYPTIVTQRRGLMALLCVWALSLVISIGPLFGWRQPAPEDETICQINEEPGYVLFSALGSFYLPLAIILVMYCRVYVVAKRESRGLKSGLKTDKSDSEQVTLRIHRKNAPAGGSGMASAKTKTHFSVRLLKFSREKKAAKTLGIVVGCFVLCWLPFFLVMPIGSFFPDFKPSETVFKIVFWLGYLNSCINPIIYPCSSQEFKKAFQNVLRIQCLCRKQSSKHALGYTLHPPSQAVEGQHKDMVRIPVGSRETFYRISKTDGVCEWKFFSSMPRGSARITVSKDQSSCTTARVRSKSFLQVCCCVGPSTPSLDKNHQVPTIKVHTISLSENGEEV

[2] = molecular target: T2, Alpha-2B adrenergic receptor (Homo sapiens, UniProt P18089)
T2 sequence (P18089 whole entry): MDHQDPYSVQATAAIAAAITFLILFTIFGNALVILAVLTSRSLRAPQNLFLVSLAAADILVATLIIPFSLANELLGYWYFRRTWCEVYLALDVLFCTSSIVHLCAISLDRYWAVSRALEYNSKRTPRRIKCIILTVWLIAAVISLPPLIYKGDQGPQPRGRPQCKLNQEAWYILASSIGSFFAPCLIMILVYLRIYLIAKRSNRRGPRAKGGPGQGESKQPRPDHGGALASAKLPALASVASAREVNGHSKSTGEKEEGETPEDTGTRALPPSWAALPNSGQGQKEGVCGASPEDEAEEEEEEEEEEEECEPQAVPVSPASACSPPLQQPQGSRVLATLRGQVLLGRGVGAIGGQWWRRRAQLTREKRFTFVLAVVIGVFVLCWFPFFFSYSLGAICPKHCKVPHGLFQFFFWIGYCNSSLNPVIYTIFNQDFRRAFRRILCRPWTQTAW

[3] = molecular target: Voltage-dependent L-type calcium channel subunit alpha-1C (Rattus norvegicus, UniProt P22002); assay type: functional
[4] = molecular target: T3, Muscarinic acetylcholine receptor M1 (Homo sapiens, UniProt P11229); assay type: functional
T3 sequence (P11229 whole entry): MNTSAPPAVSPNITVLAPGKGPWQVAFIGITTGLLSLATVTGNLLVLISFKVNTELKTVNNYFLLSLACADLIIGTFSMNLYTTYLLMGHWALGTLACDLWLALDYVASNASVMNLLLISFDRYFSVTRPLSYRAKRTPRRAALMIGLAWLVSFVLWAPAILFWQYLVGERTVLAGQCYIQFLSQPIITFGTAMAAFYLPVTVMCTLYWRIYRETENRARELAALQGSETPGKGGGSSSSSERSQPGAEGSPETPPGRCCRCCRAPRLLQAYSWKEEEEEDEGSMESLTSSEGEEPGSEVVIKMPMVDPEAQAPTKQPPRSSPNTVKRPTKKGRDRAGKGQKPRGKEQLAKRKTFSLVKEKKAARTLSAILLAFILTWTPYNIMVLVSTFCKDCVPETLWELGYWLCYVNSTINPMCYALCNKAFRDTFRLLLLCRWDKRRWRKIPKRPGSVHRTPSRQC

[5] = molecular target: T4, Estrogen receptor (Homo sapiens, UniProt P03372)
T4 sequence (P03372 whole entry): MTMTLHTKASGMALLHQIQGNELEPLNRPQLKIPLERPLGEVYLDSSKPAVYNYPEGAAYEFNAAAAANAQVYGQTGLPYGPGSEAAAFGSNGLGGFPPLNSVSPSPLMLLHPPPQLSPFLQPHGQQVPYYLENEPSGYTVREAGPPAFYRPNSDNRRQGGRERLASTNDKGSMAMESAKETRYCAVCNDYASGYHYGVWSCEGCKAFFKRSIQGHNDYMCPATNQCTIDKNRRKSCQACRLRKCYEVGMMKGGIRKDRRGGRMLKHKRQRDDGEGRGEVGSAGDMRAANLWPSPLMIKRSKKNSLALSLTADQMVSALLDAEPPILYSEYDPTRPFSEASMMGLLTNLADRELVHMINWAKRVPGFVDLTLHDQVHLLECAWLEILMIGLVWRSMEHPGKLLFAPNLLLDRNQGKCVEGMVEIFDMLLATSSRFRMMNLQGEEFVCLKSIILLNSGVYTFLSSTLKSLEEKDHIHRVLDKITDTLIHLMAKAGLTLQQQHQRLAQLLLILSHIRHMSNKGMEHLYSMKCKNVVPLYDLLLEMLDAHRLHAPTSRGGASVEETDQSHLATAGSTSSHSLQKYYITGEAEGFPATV

[6] = molecular target: T5, Neuropeptide Y receptor type 1 (Homo sapiens, UniProt P25929)
T5 sequence (P25929 whole entry): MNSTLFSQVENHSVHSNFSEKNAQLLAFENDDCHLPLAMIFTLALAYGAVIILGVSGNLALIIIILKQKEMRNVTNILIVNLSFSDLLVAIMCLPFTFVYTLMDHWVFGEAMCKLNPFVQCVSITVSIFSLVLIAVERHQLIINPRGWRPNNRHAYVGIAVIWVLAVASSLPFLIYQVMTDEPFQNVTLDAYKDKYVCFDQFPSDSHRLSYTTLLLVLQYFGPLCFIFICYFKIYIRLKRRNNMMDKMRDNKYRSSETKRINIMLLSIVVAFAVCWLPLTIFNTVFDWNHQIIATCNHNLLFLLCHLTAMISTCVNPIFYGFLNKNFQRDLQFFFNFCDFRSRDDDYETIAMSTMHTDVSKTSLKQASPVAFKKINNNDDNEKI

[7] = molecular target: Mu-type opioid receptor (Homo sapiens, UniProt P35372)
[8] = molecular target: 3',5'-cyclic-AMP phosphodiesterase 4A (Homo sapiens, UniProt P27815); assay type: functional
[9] = molecular target: Sodium-dependent serotonin transporter (Homo sapiens, UniProt P31645)
[10] = molecular target: Cannabinoid receptor 1 (Homo sapiens, UniProt P21554); assay type: functional, cell-based
Also: assay procedure not described here.

Chain of Voltage-dependent L-type calcium channel subunit alpha-1C (P22002 whole entry): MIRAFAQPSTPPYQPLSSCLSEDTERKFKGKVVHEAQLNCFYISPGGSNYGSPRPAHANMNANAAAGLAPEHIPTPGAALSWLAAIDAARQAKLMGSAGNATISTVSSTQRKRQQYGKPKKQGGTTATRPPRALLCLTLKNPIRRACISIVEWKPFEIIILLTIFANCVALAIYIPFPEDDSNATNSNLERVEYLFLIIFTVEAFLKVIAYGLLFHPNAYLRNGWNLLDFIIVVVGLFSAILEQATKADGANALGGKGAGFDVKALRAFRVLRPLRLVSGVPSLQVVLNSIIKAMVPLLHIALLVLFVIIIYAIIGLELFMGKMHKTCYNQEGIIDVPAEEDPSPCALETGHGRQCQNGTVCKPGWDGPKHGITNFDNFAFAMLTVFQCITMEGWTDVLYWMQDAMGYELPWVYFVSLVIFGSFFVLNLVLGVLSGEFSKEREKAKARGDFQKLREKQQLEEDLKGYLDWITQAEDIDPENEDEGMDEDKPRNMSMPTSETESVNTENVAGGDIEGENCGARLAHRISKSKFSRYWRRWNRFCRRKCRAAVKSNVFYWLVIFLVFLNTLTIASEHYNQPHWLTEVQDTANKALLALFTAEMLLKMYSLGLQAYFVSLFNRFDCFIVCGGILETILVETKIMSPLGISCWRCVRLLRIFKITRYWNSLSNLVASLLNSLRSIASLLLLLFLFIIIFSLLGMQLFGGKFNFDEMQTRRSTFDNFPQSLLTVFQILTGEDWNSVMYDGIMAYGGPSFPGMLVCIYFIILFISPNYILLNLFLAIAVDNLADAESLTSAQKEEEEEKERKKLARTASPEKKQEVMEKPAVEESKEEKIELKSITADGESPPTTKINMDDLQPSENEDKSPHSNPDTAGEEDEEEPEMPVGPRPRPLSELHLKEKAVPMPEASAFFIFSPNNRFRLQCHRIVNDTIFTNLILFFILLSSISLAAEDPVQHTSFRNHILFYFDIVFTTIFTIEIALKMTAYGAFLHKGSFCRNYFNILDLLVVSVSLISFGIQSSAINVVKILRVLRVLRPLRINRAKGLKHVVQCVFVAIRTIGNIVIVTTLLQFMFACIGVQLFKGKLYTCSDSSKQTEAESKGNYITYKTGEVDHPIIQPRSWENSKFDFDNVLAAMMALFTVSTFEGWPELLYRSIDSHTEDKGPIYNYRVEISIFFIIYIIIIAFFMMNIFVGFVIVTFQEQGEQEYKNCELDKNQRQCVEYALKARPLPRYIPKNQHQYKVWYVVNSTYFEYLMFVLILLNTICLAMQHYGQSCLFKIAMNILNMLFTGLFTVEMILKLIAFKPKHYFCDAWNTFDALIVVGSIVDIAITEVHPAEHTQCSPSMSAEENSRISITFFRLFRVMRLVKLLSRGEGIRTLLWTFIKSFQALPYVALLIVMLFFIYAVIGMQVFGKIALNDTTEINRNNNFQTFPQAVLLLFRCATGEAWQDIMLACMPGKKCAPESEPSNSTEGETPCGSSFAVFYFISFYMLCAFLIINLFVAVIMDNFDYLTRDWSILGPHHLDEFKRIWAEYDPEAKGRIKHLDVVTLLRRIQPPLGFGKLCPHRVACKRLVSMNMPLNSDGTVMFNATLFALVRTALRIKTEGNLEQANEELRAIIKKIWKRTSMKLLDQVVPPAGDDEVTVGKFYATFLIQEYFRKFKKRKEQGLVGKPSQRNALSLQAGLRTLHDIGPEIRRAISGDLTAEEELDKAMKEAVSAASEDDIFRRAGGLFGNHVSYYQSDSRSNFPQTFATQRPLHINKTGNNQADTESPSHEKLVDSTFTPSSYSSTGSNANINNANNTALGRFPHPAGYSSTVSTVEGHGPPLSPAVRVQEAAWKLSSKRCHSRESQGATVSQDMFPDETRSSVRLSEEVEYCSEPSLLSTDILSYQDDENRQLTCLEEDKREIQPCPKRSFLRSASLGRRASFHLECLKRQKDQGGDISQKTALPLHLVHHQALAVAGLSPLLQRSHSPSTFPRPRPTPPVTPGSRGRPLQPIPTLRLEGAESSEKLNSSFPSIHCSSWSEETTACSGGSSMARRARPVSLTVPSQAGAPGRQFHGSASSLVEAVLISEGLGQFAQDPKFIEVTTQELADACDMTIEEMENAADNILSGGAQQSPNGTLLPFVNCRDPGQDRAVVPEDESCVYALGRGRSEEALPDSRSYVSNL
Chain of 3',5'-cyclic-AMP phosphodiesterase 4A (P27815 whole entry): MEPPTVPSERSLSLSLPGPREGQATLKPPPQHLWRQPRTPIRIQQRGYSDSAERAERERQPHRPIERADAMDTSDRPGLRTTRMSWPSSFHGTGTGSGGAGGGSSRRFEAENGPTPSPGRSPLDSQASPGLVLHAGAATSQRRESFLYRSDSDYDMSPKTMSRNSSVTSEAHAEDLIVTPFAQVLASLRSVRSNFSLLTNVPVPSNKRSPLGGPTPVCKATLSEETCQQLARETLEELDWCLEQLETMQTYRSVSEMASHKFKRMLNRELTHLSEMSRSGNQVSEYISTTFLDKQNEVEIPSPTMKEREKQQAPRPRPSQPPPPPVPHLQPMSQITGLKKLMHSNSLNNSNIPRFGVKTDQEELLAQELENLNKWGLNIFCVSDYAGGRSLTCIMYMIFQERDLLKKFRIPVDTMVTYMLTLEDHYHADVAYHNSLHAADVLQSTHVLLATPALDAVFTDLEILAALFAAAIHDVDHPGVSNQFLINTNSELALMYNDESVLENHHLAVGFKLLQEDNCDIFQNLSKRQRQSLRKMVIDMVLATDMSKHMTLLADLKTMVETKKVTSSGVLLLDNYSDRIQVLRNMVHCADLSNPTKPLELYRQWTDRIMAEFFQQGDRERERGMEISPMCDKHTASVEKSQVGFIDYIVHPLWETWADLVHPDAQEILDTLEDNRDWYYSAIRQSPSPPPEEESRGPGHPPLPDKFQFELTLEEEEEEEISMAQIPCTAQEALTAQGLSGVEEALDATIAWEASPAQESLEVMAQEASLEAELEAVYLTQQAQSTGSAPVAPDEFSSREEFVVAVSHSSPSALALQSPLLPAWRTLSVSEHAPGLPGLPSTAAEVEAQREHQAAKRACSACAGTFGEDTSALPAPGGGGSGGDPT
Chain of Sodium-dependent serotonin transporter (P31645 whole entry): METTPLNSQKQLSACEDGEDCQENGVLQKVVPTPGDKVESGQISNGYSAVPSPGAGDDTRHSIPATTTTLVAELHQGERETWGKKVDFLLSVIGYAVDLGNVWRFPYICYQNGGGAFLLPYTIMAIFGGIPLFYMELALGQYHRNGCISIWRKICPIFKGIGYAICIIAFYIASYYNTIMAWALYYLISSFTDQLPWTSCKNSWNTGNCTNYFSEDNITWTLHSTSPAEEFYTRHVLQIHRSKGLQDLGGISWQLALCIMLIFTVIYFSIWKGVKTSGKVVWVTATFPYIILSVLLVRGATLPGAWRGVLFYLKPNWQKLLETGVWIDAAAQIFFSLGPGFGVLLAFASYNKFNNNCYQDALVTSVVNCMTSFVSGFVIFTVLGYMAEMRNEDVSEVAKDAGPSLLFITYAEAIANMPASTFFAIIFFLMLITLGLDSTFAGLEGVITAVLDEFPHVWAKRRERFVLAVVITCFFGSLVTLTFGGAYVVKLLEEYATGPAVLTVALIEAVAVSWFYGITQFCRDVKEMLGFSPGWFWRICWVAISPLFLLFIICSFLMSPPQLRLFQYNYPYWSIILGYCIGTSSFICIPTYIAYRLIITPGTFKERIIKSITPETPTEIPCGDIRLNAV
Chain of Mu-type opioid receptor (P35372 whole entry): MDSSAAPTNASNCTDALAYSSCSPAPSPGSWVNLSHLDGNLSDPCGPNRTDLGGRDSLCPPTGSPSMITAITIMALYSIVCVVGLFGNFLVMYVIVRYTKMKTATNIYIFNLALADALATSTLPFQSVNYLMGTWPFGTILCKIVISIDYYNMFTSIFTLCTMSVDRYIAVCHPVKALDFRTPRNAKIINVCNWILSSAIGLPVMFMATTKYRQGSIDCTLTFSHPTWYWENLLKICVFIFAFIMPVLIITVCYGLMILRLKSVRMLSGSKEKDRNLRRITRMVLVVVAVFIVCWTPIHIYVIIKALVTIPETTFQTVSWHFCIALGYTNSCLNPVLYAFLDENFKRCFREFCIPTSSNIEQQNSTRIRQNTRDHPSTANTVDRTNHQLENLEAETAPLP
Chain of Cannabinoid receptor 1 (P21554 whole entry): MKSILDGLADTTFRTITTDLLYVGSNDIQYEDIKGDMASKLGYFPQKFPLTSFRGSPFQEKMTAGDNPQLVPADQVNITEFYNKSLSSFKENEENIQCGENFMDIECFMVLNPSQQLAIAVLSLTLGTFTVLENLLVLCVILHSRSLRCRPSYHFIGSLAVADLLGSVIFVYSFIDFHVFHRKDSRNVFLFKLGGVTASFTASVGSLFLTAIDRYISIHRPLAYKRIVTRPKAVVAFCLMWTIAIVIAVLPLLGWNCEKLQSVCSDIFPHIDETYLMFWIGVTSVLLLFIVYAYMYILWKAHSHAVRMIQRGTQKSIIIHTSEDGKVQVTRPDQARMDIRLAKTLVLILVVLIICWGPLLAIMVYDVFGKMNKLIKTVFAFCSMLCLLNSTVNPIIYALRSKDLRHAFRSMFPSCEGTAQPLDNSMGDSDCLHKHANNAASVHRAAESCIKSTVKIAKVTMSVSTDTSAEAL

Row | AC50 [1] [µM] | AC50 [2] [µM] | AC50 [3] [µM] | AC50 [4] [µM] | AC50 [5] [µM] | AC50 [6] [µM] | Structure (SMILES) | AC50 [7] [µM] | AC50 [8] [µM] | AC50 [9] [µM] | AC50 [10] [µM]
1 | > 10 | > 10 | > 10 | > 10 | > 30 | > 30 | COC(=O)N[C@H](C(=O)N[C@@H](Cc1ccccc1)[C@@H](O)CN(Cc1ccc(-c2ccccn2)cc1)NC(=O)[C@@H](NC(=O)OC)C(C)(C)C)C(C)(C)C [ATAZANAVIR] | – | – | – | –
2 | – | – | – | – | – | – | O=C1c2c(O)c(=O)ccn2N([C@@H]2c3ccccc3SCc3c2ccc(F)c3F)[C@@H]2COCCN12 [BALOXAVIR] | 22 | > 30 | > 30 | –
3 | – | – | – | – | – | – | C(=N\NC1=NCCN1)/c1c2ccccc2c(/C=N/NC2=NCCN2)c2ccccc12 [BISANTRENE] | 5.36 | > 30 | 2.25 | –
4 | > 10 | > 10 | > 10 | > 10 | > 30 | > 30 | CC(C)NCC(O)COc1ccc(COCCOC(C)C)cc1 (centres undefined) [BISOPROLOL] | – | – | – | –
5 | – | – | – | – | – | – | CCO/N=C(\C(=O)N[C@@H]1C(=O)N2C(C(=O)[O-])=C(Sc3nc(-c4cc[n+](C)cc4)cs3)CS[C@H]12)c1nsc(N)n1 [CEFTAROLINE] | > 30 | > 30 | > 30 | –
6 | – | – | – | – | – | – | C[N+](C)(C)CCCCCCCCCC[N+](C)(C)C [DECAMETHONIUM] | > 30 | > 30 | > 30 | –
7 | – | – | – | – | – | – | O=C1c2ccccc2C(=O)C1C(=O)C(c1ccccc1)c1ccccc1 [DIPHENADIONE] | > 30 | > 30 | > 30 | –
8 | – | > 10 | > 10 | 8.2 | > 30 | > 30 | COc1cc2c(cc1OC)C(=O)C(CC1CCN(Cc3ccccc3)CC1)C2 (centres undefined) [DONEPEZIL] | > 30 | > 30 | > 30 | > 30
9 | – | – | – | – | – | – | CCOC(=O)c1ccc(O)cc1 [ETHYLPARABEN] | > 30 | > 30 | > 30 | –
10 | – | – | – | – | – | – | O=C1[C@H](CC[C@H](O)c2ccc(F)cc2)[C@@H](c2ccc(O)cc2)N1c1ccc(F)cc1 [EZETIMIBE] | 13.9 | > 30 | > 30 | –
11 | – | – | – | – | – | – | O=C(COc1ccc(Cl)cc1)N1CCN(Cc2ccc3c(c2)OCO3)CC1 [FIPEXIDE] | 18.4 | > 30 | 29.2 | –
12 | – | – | – | – | – | – | CCC(=O)c1c(O)cc(O)cc1O [FLOPROPIONE] | > 30 | > 30 | > 30 | –
13 | > 30 | > 10 | > 10 | > 10 | > 10 | > 10 | CN1C(=O)CC(C)(c2ccccc2)C1=O (centres undefined) [METHSUXIMIDE] | – | – | – | –
14 | – | – | – | – | – | – | CC(=O)Oc1c(C)cc(OCC(O)CNC(C)C)c(C)c1C (centres undefined) [METIPRANOLOL] | > 30 | > 30 | > 30 | –
15 | 0.833 | 0.34 | > 10 | > 10 | > 30 | > 30 | CCc1nn(CCCN2CCN(c3cccc(Cl)c3)CC2)c(=O)n1CCOc1ccccc1 [NEFAZODONE] | – | – | – | > 30
16 | – | – | – | – | – | – | CC(N/C(=N\C#N)Nc1ccncc1)C(C)(C)C (centres undefined) [PINACIDIL ANHYDROUS] | > 30 | > 30 | > 30 | –
17 | – | – | – | – | – | – | CN(C)C(=O)Oc1ccc[n+](C)c1 [PYRIDOSTIGMINE] | > 30 | > 30 | > 30 | –
18 | – | – | – | – | – | – | Cc1cc2c(cc1CC(=O)c1sccc1S(=O)(=O)Nc1onc(C)c1Cl)OCO2 [SITAXENTAN] | > 30 | 25 | > 30 | –
19 | – | – | – | – | – | – | CC(C)OC(=O)[C@H](C)N[P@](=O)(OC[C@H]1O[C@@H](n2ccc(=O)[nH]c2=O)[C@](C)(F)[C@@H]1O)Oc1ccccc1 [SOFOSBUVIR] | > 30 | > 30 | > 30 | –
20 | – | – | – | – | – | – | Cc1ccc(O)c2ncccc12 [TILIQUINOL] | > 30 | > 30 | > 30 | –
21 | – | – | – | – | – | – | CC(=O)OC[C@H]1O[C@@H](n2ccc(=O)[nH]c2=O)[C@H](OC(C)=O)[C@@H]1OC(C)=O [URIDINE TRIACETATE] | > 30 | > 30 | > 30 | –
22 | – | – | – | – | – | – | CCOC(=O)N[C@@H]1CC[C@@H]2[C@@H](C1)C[C@H]1C(=O)O[C@H](C)[C@H]1[C@H]2/C=C/c1ccc(-c2cccc(F)c2)cn1 [VORAPAXAR] | 0.82 | > 30 | > 10 | –
23 | > 10 | > 30 | > 10 | > 30 | > 30 | > 30 | O=C(CCCCCCC(=O)Nc1ccccc1)NO [VORINOSTAT] | – | – | – | > 30

Row | Structure (SMILES) | AC50 [1] [µM] | AC50 [2] [µM] | AC50 [3] [µM] | AC50 [4] [µM] | AC50 [5] [µM] | AC50 [6] [µM] | AC50 [7] [µM] | AC50 [8] [µM] | AC50 [9] [µM] | AC50 [10] [µM]
24 | COc1cc(Nc2c(C#N)cnc3cc(OCCCN4CCN(C)CC4)c(OC)cc23)c(Cl)cc1Cl [BOSUTINIB] | – | > 10 | > 10 | > 10 | > 30 | > 30 | 15.3 | > 30 | 3.21 | –
25 | CN(CCOc1ccc(NS(C)(=O)=O)cc1)CCc1ccc(NS(C)(=O)=O)cc1 [DOFETILIDE] | > 10 | > 10 | – | > 10 | > 30 | > 30 | > 30 | > 30 | > 30 | > 30
26 | COC(=O)[C@@H]1CC2=CC(=O)CC[C@]2(C)[C@@]23O[C@@H]2C[C@@]2(C)[C@@H](CC[C@@]24CCC(=O)O4)[C@H]13 [EPLERENONE] | > 10 | > 30 | > 10 | > 30 | > 30 | > 30 | – | – | – | > 30
27 | OCCN1CCN(CCCN2c3ccccc3C=Cc3ccccc32)CC1 [OPIPRAMOL] | – | 10 | – | > 30 | > 30 | > 30 | 19.4 | > 30 | 11.7 | > 30
28 | O=C(NC[C@H]1CN(c2ccc(N3CCOCC3=O)cc2)C(=O)O1)c1ccc(Cl)s1 [RIVAROXABAN] | – | > 30 | – | > 30 | – | – | > 30 | > 30 | > 30 | –
